According to ChEMBL document CHEMBL1145498, “A systematic interaction map of validated kinase inhibitors with Ser/Thr kinases” (Proc Natl Acad Sci U S A, 2007):

Legend:
[1] = molecular target: Calcium/calmodulin-dependent protein kinase type II subunit alpha (Homo sapiens) (UniProt Q9UQM7)
[2] = molecular target: Calcium/calmodulin-dependent protein kinase kinase 2 (Homo sapiens, UniProt Q96RR4)
[3] = molecular target: Serine/threonine-protein kinase Chk2 (Homo sapiens, UniProt O96017)
[4] = molecular target: Dual specificity protein kinase CLK3 (Homo sapiens) (UniProt P49761)
[5] = molecular target: Casein kinase I isoform gamma-2 (Homo sapiens) (UniProt P78368)
[6] = molecular target: T1, Dual specificity mitogen-activated protein kinase kinase 6 (Homo sapiens) (UniProt P52564)
T1 sequence (whole entry): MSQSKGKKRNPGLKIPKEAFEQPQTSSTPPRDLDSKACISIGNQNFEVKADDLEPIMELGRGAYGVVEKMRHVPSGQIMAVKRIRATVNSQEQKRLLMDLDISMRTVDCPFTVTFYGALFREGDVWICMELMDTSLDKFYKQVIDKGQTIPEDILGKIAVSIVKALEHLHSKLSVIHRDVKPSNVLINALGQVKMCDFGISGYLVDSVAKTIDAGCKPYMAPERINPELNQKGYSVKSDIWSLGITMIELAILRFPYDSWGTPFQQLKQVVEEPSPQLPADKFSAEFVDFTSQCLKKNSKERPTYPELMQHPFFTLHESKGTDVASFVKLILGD

[7] = molecular target: Serine/threonine-protein kinase Nek6 (Homo sapiens) (UniProt Q9HC98)
[8] = molecular target: Serine/threonine-protein kinase PAK 6 (Homo sapiens) (UniProt Q9NQU5)
[9] = molecular target: Serine/threonine-protein kinase pim-2 (Homo sapiens, UniProt Q9P1W9)
[10] = molecular target: Serine/threonine-protein kinase PLK1 (Homo sapiens) (UniProt P53350)
[11] = molecular target: cAMP-dependent protein kinase catalytic subunit alpha (Homo sapiens) (UniProt P17612)
[12] = molecular target: STE20-like serine/threonine-protein kinase (Homo sapiens) (UniProt Q9H2G2)
[13] = molecular target: Serine/threonine-protein kinase 10 (Homo sapiens) (UniProt O94804)
[14] = molecular target: T2, Serine/threonine-protein kinase 17A (Homo sapiens) (UniProt Q9UEE5)
T2 sequence (whole entry): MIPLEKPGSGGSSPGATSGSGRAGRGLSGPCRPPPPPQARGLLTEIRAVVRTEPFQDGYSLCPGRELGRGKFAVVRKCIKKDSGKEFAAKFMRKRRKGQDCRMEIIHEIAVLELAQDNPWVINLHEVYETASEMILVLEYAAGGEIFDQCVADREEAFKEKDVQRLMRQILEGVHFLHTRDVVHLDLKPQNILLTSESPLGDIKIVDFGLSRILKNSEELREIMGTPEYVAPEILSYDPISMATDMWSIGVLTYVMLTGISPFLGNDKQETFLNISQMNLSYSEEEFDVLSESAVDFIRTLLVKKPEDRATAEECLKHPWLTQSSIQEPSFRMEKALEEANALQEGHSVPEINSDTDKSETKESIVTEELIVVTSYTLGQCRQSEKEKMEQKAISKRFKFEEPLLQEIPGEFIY

[15] = molecular target: Serine/threonine-protein kinase 26 (Homo sapiens) (UniProt Q9P289)
[16] = molecular target: T3, Lymphokine-activated killer T-cell-originated protein kinase (Homo sapiens) (UniProt Q96KB5)
T3 sequence (whole entry): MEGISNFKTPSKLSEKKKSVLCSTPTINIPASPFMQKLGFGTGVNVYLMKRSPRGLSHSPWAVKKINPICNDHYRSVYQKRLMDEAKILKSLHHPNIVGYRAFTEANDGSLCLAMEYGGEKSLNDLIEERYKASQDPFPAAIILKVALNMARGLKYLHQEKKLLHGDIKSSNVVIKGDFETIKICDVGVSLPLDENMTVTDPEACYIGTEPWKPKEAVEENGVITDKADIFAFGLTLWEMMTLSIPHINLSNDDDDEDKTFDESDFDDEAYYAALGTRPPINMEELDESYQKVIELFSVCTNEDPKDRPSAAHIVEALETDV

Serine/threonine-protein kinase Chk2, sequence (O96017 whole entry): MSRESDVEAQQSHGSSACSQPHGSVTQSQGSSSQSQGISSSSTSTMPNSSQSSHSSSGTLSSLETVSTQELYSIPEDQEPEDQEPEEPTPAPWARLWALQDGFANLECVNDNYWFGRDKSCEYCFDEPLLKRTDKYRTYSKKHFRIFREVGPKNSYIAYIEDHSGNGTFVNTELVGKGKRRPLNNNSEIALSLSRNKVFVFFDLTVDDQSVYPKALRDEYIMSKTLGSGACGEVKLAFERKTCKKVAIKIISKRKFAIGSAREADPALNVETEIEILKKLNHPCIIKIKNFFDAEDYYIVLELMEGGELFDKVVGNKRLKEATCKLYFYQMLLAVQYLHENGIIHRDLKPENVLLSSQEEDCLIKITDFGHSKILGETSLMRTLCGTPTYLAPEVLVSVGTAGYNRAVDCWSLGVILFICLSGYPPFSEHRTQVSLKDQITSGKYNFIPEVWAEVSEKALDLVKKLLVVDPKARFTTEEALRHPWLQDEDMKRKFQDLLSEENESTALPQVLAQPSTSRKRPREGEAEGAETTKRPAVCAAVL
Serine/threonine-protein kinase PLK1 (Homo sapiens), sequence (P53350 whole entry): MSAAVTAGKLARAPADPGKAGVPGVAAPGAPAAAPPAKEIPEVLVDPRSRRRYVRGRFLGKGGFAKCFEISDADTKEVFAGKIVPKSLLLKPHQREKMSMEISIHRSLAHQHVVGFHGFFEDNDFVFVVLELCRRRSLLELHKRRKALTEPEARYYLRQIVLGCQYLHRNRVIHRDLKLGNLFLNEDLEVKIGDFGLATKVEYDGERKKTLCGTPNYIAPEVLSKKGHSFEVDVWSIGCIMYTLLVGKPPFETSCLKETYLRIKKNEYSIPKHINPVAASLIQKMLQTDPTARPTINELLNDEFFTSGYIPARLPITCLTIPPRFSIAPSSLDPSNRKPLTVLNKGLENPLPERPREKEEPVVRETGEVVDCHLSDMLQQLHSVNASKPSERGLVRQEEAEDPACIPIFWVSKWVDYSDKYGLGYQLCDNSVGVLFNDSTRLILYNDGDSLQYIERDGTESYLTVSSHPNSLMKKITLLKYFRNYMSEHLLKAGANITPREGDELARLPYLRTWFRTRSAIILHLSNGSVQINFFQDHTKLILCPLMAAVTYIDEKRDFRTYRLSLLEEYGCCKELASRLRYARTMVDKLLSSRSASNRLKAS
Calcium/calmodulin-dependent protein kinase kinase 2, sequence (Q96RR4 2-588 limits assumed): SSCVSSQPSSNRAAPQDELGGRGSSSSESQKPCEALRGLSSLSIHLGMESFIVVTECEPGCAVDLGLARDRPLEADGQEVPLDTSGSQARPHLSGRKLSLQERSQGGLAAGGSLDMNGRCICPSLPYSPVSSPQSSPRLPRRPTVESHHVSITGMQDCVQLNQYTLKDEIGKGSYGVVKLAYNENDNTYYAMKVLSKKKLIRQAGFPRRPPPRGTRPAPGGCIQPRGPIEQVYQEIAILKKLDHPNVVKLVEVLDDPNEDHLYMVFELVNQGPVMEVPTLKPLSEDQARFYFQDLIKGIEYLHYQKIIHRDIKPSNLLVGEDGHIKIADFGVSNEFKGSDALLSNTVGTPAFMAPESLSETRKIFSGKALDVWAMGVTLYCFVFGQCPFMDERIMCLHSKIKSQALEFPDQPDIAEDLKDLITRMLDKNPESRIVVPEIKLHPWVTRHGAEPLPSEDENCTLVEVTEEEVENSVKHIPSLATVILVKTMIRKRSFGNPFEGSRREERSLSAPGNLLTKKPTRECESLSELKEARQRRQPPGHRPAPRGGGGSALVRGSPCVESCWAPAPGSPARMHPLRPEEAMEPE
Calcium/calmodulin-dependent protein kinase type II subunit alpha (Homo sapiens), sequence (Q9UQM7 whole entry): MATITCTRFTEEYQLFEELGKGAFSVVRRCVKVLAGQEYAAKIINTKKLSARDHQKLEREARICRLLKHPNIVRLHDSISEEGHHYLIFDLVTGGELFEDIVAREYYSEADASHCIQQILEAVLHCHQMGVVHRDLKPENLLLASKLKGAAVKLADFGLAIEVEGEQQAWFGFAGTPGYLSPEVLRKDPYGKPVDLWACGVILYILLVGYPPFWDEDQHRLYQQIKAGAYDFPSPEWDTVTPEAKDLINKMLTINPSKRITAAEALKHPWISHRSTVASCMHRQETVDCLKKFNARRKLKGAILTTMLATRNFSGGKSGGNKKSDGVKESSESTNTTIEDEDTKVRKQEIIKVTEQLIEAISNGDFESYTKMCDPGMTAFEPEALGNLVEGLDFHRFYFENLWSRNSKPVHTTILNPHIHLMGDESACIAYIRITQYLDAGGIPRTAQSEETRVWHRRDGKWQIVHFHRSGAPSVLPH
Serine/threonine-protein kinase pim-2, sequence (Q9P1W9 whole entry, looked up): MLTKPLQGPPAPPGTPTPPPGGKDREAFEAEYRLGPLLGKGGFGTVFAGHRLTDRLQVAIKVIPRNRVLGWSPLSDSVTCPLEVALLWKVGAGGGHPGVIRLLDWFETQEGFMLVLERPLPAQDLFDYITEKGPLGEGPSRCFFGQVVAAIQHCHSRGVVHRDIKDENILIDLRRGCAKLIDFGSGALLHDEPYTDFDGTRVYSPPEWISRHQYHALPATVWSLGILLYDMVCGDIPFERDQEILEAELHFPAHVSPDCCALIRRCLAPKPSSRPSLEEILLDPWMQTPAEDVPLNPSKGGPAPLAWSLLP
Serine/threonine-protein kinase PAK 6 (Homo sapiens), sequence (Q9NQU5 whole entry, looked up): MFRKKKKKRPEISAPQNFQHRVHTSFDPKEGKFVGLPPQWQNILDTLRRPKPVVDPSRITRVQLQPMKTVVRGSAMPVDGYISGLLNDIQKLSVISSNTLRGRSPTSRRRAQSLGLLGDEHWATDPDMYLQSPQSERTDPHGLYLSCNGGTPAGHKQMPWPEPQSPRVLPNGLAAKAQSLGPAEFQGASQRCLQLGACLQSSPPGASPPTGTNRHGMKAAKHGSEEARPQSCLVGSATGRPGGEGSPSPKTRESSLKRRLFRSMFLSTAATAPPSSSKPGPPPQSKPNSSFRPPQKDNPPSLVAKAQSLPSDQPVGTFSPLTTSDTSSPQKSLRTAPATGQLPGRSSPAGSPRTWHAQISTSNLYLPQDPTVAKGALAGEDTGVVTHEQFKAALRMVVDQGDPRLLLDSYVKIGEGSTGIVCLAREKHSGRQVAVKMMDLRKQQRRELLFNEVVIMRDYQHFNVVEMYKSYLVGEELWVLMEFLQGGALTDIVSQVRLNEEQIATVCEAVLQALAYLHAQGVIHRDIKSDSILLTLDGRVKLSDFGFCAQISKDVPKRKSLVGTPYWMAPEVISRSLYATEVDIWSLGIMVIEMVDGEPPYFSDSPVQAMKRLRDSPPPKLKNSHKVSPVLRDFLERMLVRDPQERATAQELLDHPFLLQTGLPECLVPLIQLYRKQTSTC
Serine/threonine-protein kinase Nek6 (Homo sapiens), sequence (Q9HC98 whole entry): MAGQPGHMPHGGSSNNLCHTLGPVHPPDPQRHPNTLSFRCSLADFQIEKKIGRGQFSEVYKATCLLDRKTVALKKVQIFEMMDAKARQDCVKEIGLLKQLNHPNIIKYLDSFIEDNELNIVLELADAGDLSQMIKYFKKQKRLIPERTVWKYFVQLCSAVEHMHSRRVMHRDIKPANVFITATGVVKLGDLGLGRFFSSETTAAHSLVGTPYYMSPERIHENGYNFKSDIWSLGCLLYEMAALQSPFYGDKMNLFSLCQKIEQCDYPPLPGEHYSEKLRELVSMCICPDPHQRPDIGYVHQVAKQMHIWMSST
Serine/threonine-protein kinase 26 (Homo sapiens), sequence (Q9P289 2-416 limits assumed): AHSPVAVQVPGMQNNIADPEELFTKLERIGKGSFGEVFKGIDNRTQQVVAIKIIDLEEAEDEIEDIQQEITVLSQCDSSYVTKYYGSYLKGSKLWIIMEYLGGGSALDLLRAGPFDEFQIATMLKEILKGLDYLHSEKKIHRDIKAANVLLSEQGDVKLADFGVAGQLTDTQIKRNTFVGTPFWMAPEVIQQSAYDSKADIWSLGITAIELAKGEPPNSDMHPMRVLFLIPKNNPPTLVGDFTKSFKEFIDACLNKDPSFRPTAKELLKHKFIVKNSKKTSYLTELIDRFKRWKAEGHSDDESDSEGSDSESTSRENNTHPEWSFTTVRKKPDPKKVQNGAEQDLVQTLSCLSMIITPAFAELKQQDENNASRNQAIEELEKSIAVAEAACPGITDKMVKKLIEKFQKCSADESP
Casein kinase I isoform gamma-2 (Homo sapiens), sequence (P78368 whole entry, looked up, canonical isoform): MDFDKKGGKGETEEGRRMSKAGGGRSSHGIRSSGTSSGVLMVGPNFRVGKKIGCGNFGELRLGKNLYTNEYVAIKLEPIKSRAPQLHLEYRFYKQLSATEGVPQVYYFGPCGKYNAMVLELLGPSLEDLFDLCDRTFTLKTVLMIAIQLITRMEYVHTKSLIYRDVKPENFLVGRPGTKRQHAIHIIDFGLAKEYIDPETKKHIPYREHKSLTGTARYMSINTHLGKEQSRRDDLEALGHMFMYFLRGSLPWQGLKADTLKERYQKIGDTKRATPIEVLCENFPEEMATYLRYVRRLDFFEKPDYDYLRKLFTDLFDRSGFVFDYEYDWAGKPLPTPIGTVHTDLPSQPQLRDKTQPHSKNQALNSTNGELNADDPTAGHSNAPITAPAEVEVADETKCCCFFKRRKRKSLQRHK
Dual specificity protein kinase CLK3 (Homo sapiens), sequence (P49761 whole entry, looked up, canonical isoform): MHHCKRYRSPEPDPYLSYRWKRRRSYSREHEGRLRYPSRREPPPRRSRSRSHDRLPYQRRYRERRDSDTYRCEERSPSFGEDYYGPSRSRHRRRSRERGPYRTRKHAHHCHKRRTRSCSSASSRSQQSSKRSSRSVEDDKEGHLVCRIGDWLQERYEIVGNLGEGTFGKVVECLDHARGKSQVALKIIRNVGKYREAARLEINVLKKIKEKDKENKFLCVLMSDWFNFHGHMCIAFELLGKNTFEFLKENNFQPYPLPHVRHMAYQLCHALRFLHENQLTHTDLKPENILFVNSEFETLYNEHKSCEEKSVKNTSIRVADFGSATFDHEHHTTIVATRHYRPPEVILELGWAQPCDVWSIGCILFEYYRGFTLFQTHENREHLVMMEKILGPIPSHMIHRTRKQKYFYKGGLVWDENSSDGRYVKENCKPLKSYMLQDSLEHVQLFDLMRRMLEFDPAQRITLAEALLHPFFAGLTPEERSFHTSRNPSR

For `COC1=C2C[C@@H](C)C[C@H](OC)[C@H](O)[C@@H](C)/C=C(\C)[C@H](OC(N)=O)[C@@H](OC)/C=C\C=C(/C)C(=O)NC(=CC1=O)C2=O`, which ΔTm [1] is on record?
Its ΔTm is -0.1 °C.

And the ΔTm [2]?
The ΔTm was -0.6 °C.

And the ΔTm [3]?
Its ΔTm is 0.2 °C.

What about the ΔTm [4] of the same molecule?
Its ΔTm is -0.1 °C.

What about the ΔTm [5] of the same molecule?
The ΔTm was 0.4 °C.

What about the ΔTm [6] of the same molecule?
Its ΔTm is 0 °C.

What about the ΔTm [7] of the same molecule?
The ΔTm was -0.2 °C.

And the ΔTm [8]?
The ΔTm was 0.3 °C.

And the ΔTm [9]?
The ΔTm was -0.1 °C.

And the ΔTm [10]?
Its ΔTm is 0.1 °C.

And the ΔTm [11]?
Its ΔTm is 1.1 °C.

What about the ΔTm [12] of the same molecule?
Its ΔTm is 1.7 °C.

What about the ΔTm [13] of the same molecule?
Its ΔTm is 0.5 °C.

What about the ΔTm [14] of the same molecule?
Its ΔTm is 0.3 °C.

And the ΔTm [15]?
Its ΔTm is -0.3 °C.

And the ΔTm [16]?
The ΔTm was 0.6 °C.

For `COC(=O)[C@]1(O)C[C@@H]2O[C@@]1(C)n1c3ccccc3c3c4c(c5c6ccccc6n2c5c31)C(=O)NC4` (single isomer, unassigned), which ΔTm [1] is on record?
Its ΔTm is 3.2 °C.

And the ΔTm [2]?
The ΔTm was 4.2 °C.

And the ΔTm [3]?
The ΔTm was 6 °C.

What about the ΔTm [4] of the same molecule?
Its ΔTm is 0.6 °C.

And the ΔTm [5]?
The ΔTm was 0.1 °C.

What about the ΔTm [7] of the same molecule?
The ΔTm was 0 °C.

What about the ΔTm [8] of the same molecule?
The ΔTm was 9.7 °C.

And the ΔTm [9]?
Its ΔTm is 3.8 °C.

And the ΔTm [10]?
Its ΔTm is 2.6 °C.

And the ΔTm [11]?
The ΔTm was 7.1 °C.

What about the ΔTm [12] of the same molecule?
Its ΔTm is 6.3 °C.

And the ΔTm [13]?
Its ΔTm is 10.9 °C.

And the ΔTm [14]?
The ΔTm was 17.5 °C.

What about the ΔTm [15] of the same molecule?
Its ΔTm is 1.6 °C.

And the ΔTm [16]?
The ΔTm was 0.4 °C.

Which results are given for `COc1cc2ncnc(Nc3cccc(O)c3)c2cc1OC`?
ΔTm [1]: 0 °C; ΔTm [2]: 1.1 °C; ΔTm [3]: 1.8 °C; ΔTm [4]: 0.5 °C; ΔTm [5]: 1.5 °C; ΔTm [7]: -0.1 °C; ΔTm [9]: 0.6 °C; ΔTm [10]: 1 °C; ΔTm [11]: 0.1 °C; ΔTm [12]: 3.2 °C; ΔTm [13]: 4.2 °C; ΔTm [14]: 3.7 °C; ΔTm [15]: 0.1 °C; ΔTm [16]: -0.1 °C

What does the source list for `CCN(CC)CCNC(=O)c1c(C)[nH]c(/C=C2\C(=O)Nc3ccc(F)cc32)c1C`?
ΔTm [1]: 5 °C; ΔTm [2]: 6.8 °C; ΔTm [3]: 12.9 °C; ΔTm [4]: 2.1 °C; ΔTm [6]: 3.9 °C; ΔTm [7]: 3.4 °C; ΔTm [8]: 3.5 °C; ΔTm [9]: 0 °C; ΔTm [10]: 1.5 °C; ΔTm [11]: 9.2 °C; ΔTm [12]: 6.5 °C; ΔTm [13]: 11.3 °C; ΔTm [14]: 8.3 °C; ΔTm [15]: -0.1 °C; ΔTm [16]: 0.4 °C

With `Cc1nc(Nc2ncc(C(=O)Nc3c(C)cccc3Cl)s2)cc(N2CCN(CCO)CC2)n1` as the molecule, how does the ΔTm [1] read?
The ΔTm was 0 °C.

What about the ΔTm [2] of the same molecule?
Its ΔTm is 0.6 °C.

What about the ΔTm [3] of the same molecule?
The ΔTm was 1.2 °C.

What about the ΔTm [4] of the same molecule?
The ΔTm was 4.1 °C.

And the ΔTm [5]?
Its ΔTm is 0.2 °C.

And the ΔTm [6]?
Its ΔTm is 0.5 °C.

And the ΔTm [7]?
The ΔTm was 0.2 °C.

And the ΔTm [8]?
Its ΔTm is 2.1 °C.

What about the ΔTm [9] of the same molecule?
The ΔTm was 0 °C.

And the ΔTm [10]?
The ΔTm was 2.4 °C.

What about the ΔTm [11] of the same molecule?
The ΔTm was 0.4 °C.

With `Clc1ccc(Nc2nnc(Cc3ccncc3)c3ccccc23)cc1` as the molecule, how does the ΔTm [1] read?
The ΔTm was 0.4 °C.

And the ΔTm [2]?
Its ΔTm is 0.5 °C.

And the ΔTm [3]?
The ΔTm was 0.2 °C.

And the ΔTm [4]?
The ΔTm was 1.1 °C.

What about the ΔTm [5] of the same molecule?
The ΔTm was 0 °C.

What about the ΔTm [6] of the same molecule?
The ΔTm was 0.4 °C.

And the ΔTm [7]?
The ΔTm was 0.1 °C.

And the ΔTm [8]?
Its ΔTm is 0 °C.

And the ΔTm [9]?
Its ΔTm is -0.3 °C.

What about the ΔTm [10] of the same molecule?
The ΔTm was 0 °C.

And the ΔTm [11]?
Its ΔTm is 0.2 °C.

How did the ΔTm [1] turn out when `CN[C@@H]1CC2O[C@@](C)([C@@H]1OC)n1c3ccccc3c3c4c(c5c6ccccc6n2c5c31)C(=O)NC4` was run?
Its ΔTm is 16.3 °C.

And the ΔTm [2]?
The ΔTm was 18.6 °C.

What about the ΔTm [4] of the same molecule?
The ΔTm was 4.2 °C.

And the ΔTm [6]?
The ΔTm was 11.6 °C.

What about the ΔTm [7] of the same molecule?
Its ΔTm is -0.3 °C.

And the ΔTm [8]?
Its ΔTm is 16.8 °C.

And the ΔTm [11]?
The ΔTm was 11.3 °C.

And the ΔTm [12]?
Its ΔTm is 20.1 °C.

What about the ΔTm [13] of the same molecule?
The ΔTm was 24.8 °C.

And the ΔTm [14]?
Its ΔTm is 17.4 °C.

And the ΔTm [15]?
The ΔTm was 8.8 °C.

And the ΔTm [16]?
Its ΔTm is 0.4 °C.

For `OC[C@H]1O[C@@H](n2cnc3cc(Cl)c(Cl)cc32)[C@H](O)[C@@H]1O`, which ΔTm [1] is on record?
Its ΔTm is 0.8 °C.

What about the ΔTm [2] of the same molecule?
Its ΔTm is 0.6 °C.

And the ΔTm [3]?
Its ΔTm is 0.2 °C.

What about the ΔTm [4] of the same molecule?
Its ΔTm is 1.4 °C.

What about the ΔTm [5] of the same molecule?
Its ΔTm is 0.6 °C.

And the ΔTm [6]?
Its ΔTm is 0.2 °C.

And the ΔTm [8]?
The ΔTm was -0.4 °C.

What about the ΔTm [9] of the same molecule?
The ΔTm was 2.6 °C.

And the ΔTm [10]?
The ΔTm was -0.5 °C.

And the ΔTm [11]?
Its ΔTm is 0.4 °C.

And the ΔTm [12]?
Its ΔTm is 0.1 °C.

What about the ΔTm [13] of the same molecule?
The ΔTm was -0.7 °C.

What about the ΔTm [14] of the same molecule?
The ΔTm was 2.1 °C.

What about the ΔTm [15] of the same molecule?
The ΔTm was -0.3 °C.

What about the ΔTm [16] of the same molecule?
The ΔTm was 0.6 °C.

How did the ΔTm [1] turn out when `Cc1ccc(NC(=O)c2ccc(CN3CCN(C)CC3)cc2)cc1Nc1nccc(-c2cccnc2)n1` was run?
The ΔTm was 0.2 °C.

What about the ΔTm [2] of the same molecule?
Its ΔTm is 2.8 °C.

And the ΔTm [3]?
Its ΔTm is -1.1 °C.

And the ΔTm [5]?
The ΔTm was 0.8 °C.

What about the ΔTm [6] of the same molecule?
The ΔTm was 0.4 °C.

What about the ΔTm [7] of the same molecule?
Its ΔTm is 0.4 °C.

And the ΔTm [8]?
Its ΔTm is 4.1 °C.

And the ΔTm [9]?
Its ΔTm is 0.6 °C.

And the ΔTm [10]?
Its ΔTm is 1.6 °C.

What about the ΔTm [11] of the same molecule?
Its ΔTm is 0.8 °C.

What about the ΔTm [12] of the same molecule?
The ΔTm was 1.7 °C.

What about the ΔTm [13] of the same molecule?
The ΔTm was 0.8 °C.

What about the ΔTm [14] of the same molecule?
The ΔTm was 1.3 °C.

And the ΔTm [15]?
The ΔTm was -0.3 °C.

What about the ΔTm [16] of the same molecule?
Its ΔTm is 0.8 °C.
